Experimental data: patent publication US20070237848A1, “MORINDA CITRIFOLIA BASED COMPOSITIONS FOR TREATMENT OF ANTI-INFLAMMATORY DISEASES THROUGH INHIBITION OF COX-1, COX-2, INTERLEUKIN-1beta, INTERLEUKIN-6, TNF-alpha, HLE, AND iNOS” (priority 2005, published 2007)

How the values were obtained:
[1] = system: inducible Nitrite Oxide Synthase (iNOS); experiment: iNOS assay in LPS-stimulated murine macrophages (J774A.1); assay type: cell-based; details: standard reference agent
Protocol: An iNOS Assay was performed as follows. Murine Macrophages (1.5*10^5 cells/well) were seeded for 24 hours. After preincubating the samples with the cells at room temperature for 10 minutes, the reaction was started with 1 μg/ml LPS (E.coli 055:B5). The incubation time was 24 hours at 37° C. and 5% CO 2. The controls [t(0)] were performed without LPS stimulation. The quantification of Nitric Oxide was performed with a Nitric Oxide Colorimetric Assay Kit from BioVision (Art.Nr: #K262-200). The optical densities were measured at λ=570 nm. […] Sample points were measured in triplicate. […] The following tables and charts and FIG. 9 summarize the assay and the results.

[2] = target: T1, Human Leukocyte Elastase (HLE) (Homo sapiens, UniProt P08246); experiment: Leukocyte Elastase Assay (p-Nitroaniline, photometric); assay type: biochemical; details: standard reference agent
T1 sequence (P08246 30-267): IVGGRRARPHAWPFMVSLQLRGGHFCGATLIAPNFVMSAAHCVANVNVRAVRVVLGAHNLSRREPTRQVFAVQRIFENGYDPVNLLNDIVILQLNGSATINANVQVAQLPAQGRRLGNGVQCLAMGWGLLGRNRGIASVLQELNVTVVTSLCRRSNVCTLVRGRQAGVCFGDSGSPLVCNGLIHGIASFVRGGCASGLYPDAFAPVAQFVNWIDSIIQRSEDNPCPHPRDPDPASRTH
Protocol: A Leukocyte Elastase Assay was performed as follows. After preincubating the samples with the enzyme HLE (20 nM) at room temperature for 10 minutes, the reaction was started with an enzyme substrate (5 mM). The reaction time was 15 min at room temperature. The controls [t(0)] were performed without enzyme. […] The quantification of p-Nitroaniline was performed by direct photometrical measurement.
All sample points were measured in duplicate. […] The following tables, charts, and FIGS. 8A and 8B summarize the assay and the results.

| IC50 [2] | Structure (SMILES) | IC50 [1] |
| --- | --- | --- |
| – | COC(=O)[C@@H](N)CCCNC(=N)N[N+](=O)[O-] [L-NAME] | 600 µM |
| 30 µM | C[C@H]1[C@H](C)CC[C@]2(C(=O)O)CC[C@]3(C)C(=CC[C@@H]4[C@@]5(C)CC[C@H](O)C(C)(C)[C@@H]5CC[C@]43C)[C@H]12 [Ursolic acid] | – |
